The values below are quoted from earlier work in PMC3068529 (Journal of the American Chemical Society, 2011).

As a reminder, the Kd is the equilibrium constant for the complex coming apart.

This data set concerns the target T1, TLR3 (Homo sapiens, UniProt O15455).
T1 sequence (O15455 24-904): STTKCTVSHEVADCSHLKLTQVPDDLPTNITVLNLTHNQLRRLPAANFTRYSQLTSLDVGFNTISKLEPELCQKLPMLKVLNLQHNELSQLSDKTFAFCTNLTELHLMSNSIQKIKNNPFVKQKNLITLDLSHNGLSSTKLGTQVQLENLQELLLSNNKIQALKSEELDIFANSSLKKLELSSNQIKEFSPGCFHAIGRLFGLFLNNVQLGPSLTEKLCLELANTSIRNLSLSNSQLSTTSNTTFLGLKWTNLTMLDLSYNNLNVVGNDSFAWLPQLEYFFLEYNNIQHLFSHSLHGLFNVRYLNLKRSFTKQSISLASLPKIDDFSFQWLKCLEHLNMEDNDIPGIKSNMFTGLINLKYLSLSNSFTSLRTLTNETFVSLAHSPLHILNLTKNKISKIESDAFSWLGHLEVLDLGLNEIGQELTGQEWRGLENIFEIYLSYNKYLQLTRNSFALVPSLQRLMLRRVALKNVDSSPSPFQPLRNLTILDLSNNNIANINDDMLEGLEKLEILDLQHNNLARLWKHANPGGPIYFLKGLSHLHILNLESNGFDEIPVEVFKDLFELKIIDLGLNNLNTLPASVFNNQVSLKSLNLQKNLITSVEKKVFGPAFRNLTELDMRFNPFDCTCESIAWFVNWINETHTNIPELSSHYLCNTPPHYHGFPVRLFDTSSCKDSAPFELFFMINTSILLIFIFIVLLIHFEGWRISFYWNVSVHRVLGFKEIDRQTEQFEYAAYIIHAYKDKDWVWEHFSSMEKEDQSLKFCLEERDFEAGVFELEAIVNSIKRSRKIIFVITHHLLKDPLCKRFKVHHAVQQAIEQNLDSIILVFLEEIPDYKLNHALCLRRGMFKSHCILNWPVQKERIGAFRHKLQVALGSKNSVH
To be noted: dsRNA binding to TLR3.

As for “polyriboinosinic:polyribocytidylic acid [dsRNA]”, the Kd was 19 ± 0.9 nM.
